Columns and labels:
Assay type in all cases: cell-based
[1] = tested on: NCI-N87 cells; assay: Cell viability assay (CellTiter-Glo), NCI-N87; conditions: Homo sapiens, HER2 expressing cells, 72 h
Procedure: (§1) Cell Viability Assay for Antibody-Polymer-Drug Conjugates.
(§2) PBD compounds and conjugates thereof were evaluated for their antiproliferation properties in tumor cell lines in vitro using CellTiter-Glo® (Promega Corp). Cells were plated in black walled 96-well plate and allowed to adhere overnight at 37° C. in a humidified atmosphere of 5% CO2. BT474, SKBR3, NCI-N87 cells (HER2 expressing cells), JIMT1 cells (HER2 medium expression level cells) and MCF7 cells (HER2 low expressing levels cells) and were plated at a density of 5,000 cells per well. The next day the medium was replaced with 50 μL fresh medium and 50 μL of 2× stocks of PBD compounds or antibody-PBD conjugate were added to appropriate wells, mixed and incubated for 72 h. CellTiter-Glo® reagent was added to the wells at room temperature and the luminescent signal was measured after 10 min using a SpectraMax M5 plate reader (Molecular Devices). Dose response curves were generated using SoftMax Pro software. IC50 values were determined from four-parameter curve fitting.

[2] = tested on: BT474 cells; assay: Cell viability assay (CellTiter-Glo), BT474; conditions: Homo sapiens, BT-474, HER2 expressing cells, 72 h
Procedure: as §1, §2

[3] = tested on: JIMT1 cells; assay: Cell viability assay (CellTiter-Glo), JIMT1; conditions: Homo sapiens, JIMT-1, HER2 medium expression level cells, 72 h
Procedure: as §1, §2

[4] = tested on: MCF7 cells; assay: Cell viability assay (CellTiter-Glo), MCF7; conditions: Homo sapiens, HER2 low expressing levels cells, 72 h
Procedure: as §1, §2

[5] = tested on: SKBR3 cells; assay: Cell viability assay (CellTiter-Glo), SKBR3; conditions: Homo sapiens, SK-BR-3, HER2 expressing cells, 72 h
Procedure: as §1, §2

Q: Which IC50 ([1]; PBD compounds (Table I)) does the source give for `C=C1C[C@H]2C=Nc3cc(OCCCC(=O)Nc4cc(-c5nc6ccc(N)cc6[nH]5)n(C)c4)c(OC)cc3C(=O)N2C1` [Compound 27, (S,Z)—N-(5-(6-amino-1H-benzo[d]imidazol-2-yl)-1-methyl-1H-pyrrol-3-yl)-4-(7-methoxy-2-methylene-5-oxo-2,3,5,11a-tetrahydro-1H-benzo[e]pyrrolo[1,2-a][1,4]diazepin-8-yloxy)butanamide] here?
A: Its IC50 is 13 nM.

Q: What about the IC50 ([2]; PBD compounds (Table I)) of the same molecule?
A: Its IC50 is 27.3 nM.

Q: What about the IC50 ([3]; PBD compounds (Table I)) of the same molecule?
A: The IC50 was 9 nM.

Q: And the IC50 ([4]; PBD compounds (Table I))?
A: Its IC50 is 26 nM.

Q: What about the IC50 ([5]; PBD compounds (Table I)) of the same molecule?
A: Its IC50 is 6.1 nM.

Q: With `C=C1CC2C=Nc3cc(OCCCC(=O)Nc4cn(C)c(C(=O)Nc5ccc(-c6cc(C(=O)n7ccc8cc(N)ccc87)n(C)c6)cc5)n4)c(OC)cc3C(=O)N2C1` (stereo not shown) [Compound 105, (Z)—N-(4-(5-(5-amino-1H-indole-1-carbonyl)-1-methyl-1H-pyrrol-3-yl)phenyl)-4-(4-(7-methoxy-2-methylene-5-oxo-2,3,5,11a-tetrahydro-1H-benzo[e]pyrrolo[1,2-a][1,4]diazepin-8-yloxy)butanamido)-1-methyl-1H-imidazole-2-carboxamide] as the molecule, how does the IC50 ([1]; conjugates (Table II)) read?
A: Its IC50 is 0.03 nM.

Q: What about the IC50 ([2]; conjugates (Table II)) of the same molecule?
A: The IC50 was 0.09 nM.

Q: And the IC50 ([3]; conjugates (Table II))?
A: Its IC50 is 0.04 nM.

Q: What about the IC50 ([4]; conjugates (Table II)) of the same molecule?
A: Its IC50 is 0.03 nM.

Q: And the IC50 ([5]; conjugates (Table II))?
A: The IC50 was 0.007 nM.

Q: What does the source list for `C=C1C[C@H]2C=Nc3cc(OCCCC(=O)Nc4cn(C)c(C(=O)Nc5ccc(-c6nc7ccc(N)cc7[nH]6)cc5)n4)c(OC)cc3C(=O)N2C1` [Compound 9, (S,Z)—N-(4-(5-amino-1H-benzo[d]imidazol-2-yl)phenyl)-4-(4-(7-methoxy-2-methylene-5-oxo-2,3,5,11a-tetrahydro-1H-benzo[e]pyrrolo[1,2-a][1,4]diazepin-8-yloxy)butanamido)-1-methyl-1H-imidazole-2-carboxamide]?
A: IC50 ([1]; PBD compounds (Table I)): 0.9 nM; IC50 ([2]; PBD compounds (Table I)): 4 nM; IC50 ([3]; PBD compounds (Table I)): 0.7 nM; IC50 ([4]; PBD compounds (Table I)): 1.6 nM; IC50 ([5]; PBD compounds (Table I)): 0.3 nM

Q: Which results are given for `C=C1C[C@H]2C=Nc3cc(OCCCC(=O)Nc4cn(C)c(C(=O)Nc5ccc(-c6cc7cc(N)ccc7[nH]6)cc5)n4)c(OC)cc3C(=O)N2C1` [Compound 18, (S)—N-(4-(5-amino-1H-indol-2-yl)phenyl)-4-(4-((7-methoxy-2-methylene-5-oxo-2,3,5,11a-tetrahydro-1H-benzo[e]pyrrolo[1,2-a][1,4]diazepin-8-yl)oxy)butanamido)-1-methyl-1H-imidazole-2-carboxamide]?
A: IC50 ([1]; PBD compounds (Table I)): 0.2 nM; IC50 ([2]; PBD compounds (Table I)): 0.5 nM; IC50 ([3]; PBD compounds (Table I)): 0.2 nM; IC50 ([4]; PBD compounds (Table I)): 0.7 nM; IC50 ([5]; PBD compounds (Table I)): 0.08 nM

Q: For `C=C1C[C@H]2C=Nc3cc(OCCCC(=O)Nc4cn(C)c(C(=O)Nc5cc(C(=O)Nc6ccc(-c7nc8cc(N)ccc8[nH]7)cc6)n(C)c5)n4)c(OC)cc3C(=O)N2C1` [Compound 24, (S,Z)—N-(5-(4-(5-amino-1H-benzo[d]imidazol-2-yl)phenylcarbamoyl)-1-methyl-1H-pyrrol-3-yl)-4-(4-(7-methoxy-2-methylene-5-oxo-2,3,5,11a-tetrahydro-1H-benzo[e]pyrrolo[1,2-a][1,4]diazepin-8-yloxy)butanamido)-1-methyl-1H-imidazole-2-carboxamide], which IC50 ([1]; PBD compounds (Table I)) is on record?
A: Its IC50 is 3 nM.

Q: And the IC50 ([2]; PBD compounds (Table I))?
A: Its IC50 is 21 nM.

Q: And the IC50 ([3]; PBD compounds (Table I))?
A: The IC50 was 1.8 nM.

Q: What about the IC50 ([4]; PBD compounds (Table I)) of the same molecule?
A: Its IC50 is 34 nM.

Q: What about the IC50 ([5]; PBD compounds (Table I)) of the same molecule?
A: The IC50 was 1 nM.

Q: What does the source list for `C=C1C[C@H]2C=Nc3cc(OCCCC(=O)Nc4cn(C)c(C(=O)Nc5ccc(-c6cc(C(=O)OCCCN)n(C)c6)cc5)n4)c(OC)cc3C(=O)N2C1` [Compound 41, (S,Z)-3-aminopropyl 4-(4-(4-(4-(7-methoxy-2-methylene-5-oxo-2,3,5,11a-tetrahydro-1H-benzo[e]pyrrolo[1,2-a][1,4]diazepin-8-yloxy)butanamido)-1-methyl-1H-imidazole-2-carboxamido)phenyl)-1-methyl-1H-pyrrole-2-carboxylate]?
A: IC50 ([1]; PBD compounds (Table I)): 6.3 nM; IC50 ([2]; PBD compounds (Table I)): 300 nM; IC50 ([3]; PBD compounds (Table I)): 0.8 nM; IC50 ([4]; PBD compounds (Table I)): 140 nM; IC50 ([5]; PBD compounds (Table I)): 3 nM

Q: Which results are given for `C=C1CC2C=Nc3cc(OCCCC(=O)Nc4cn(C)c(C(=O)Nc5ccc(-c6cc(C(=O)n7ccc8cc(C(=O)OC)ccc87)n(C)c6)cc5)n4)c(OC)cc3C(=O)N2C1` (stereo not shown) [Compound 109, methyl 1-(4-(4-(4-(4-((7-methoxy-2-methylene-5-oxo-2,3,5,11a-tetrahydro-1H-benzo[e]pyrrolo[1,2-a][1,4]diazepin-8-yl)oxy)butanamido)-1-methyl-1H-imidazole-2-carboxamido)phenyl)-1-methyl-1H-pyrrole-2-carbonyl)-1H-indole-5-carboxylate]?
A: IC50 ([1]; conjugates (Table II)): 0.14 nM; IC50 ([2]; conjugates (Table II)): 0.09 nM; IC50 ([3]; conjugates (Table II)): 0.28 nM; IC50 ([4]; conjugates (Table II)): 0.18 nM

Q: Which IC50 ([1]; PBD compounds (Table I)) does the source give for `C=C1C[C@H]2C=Nc3cc(OCCCC(=O)Nc4cc(C(=O)Nc5ccc(-c6cc(C(=O)NCCCO)n(C)c6)cc5)n(C)c4)c(OC)cc3C(=O)N2C1` [Compound 37, (S,Z)—N-(3-hydroxypropyl)-4-(4-(4-(4-(7-methoxy-2-methylene-5-oxo-2,3,5,11a-tetrahydro-1H-benzo[e]pyrrolo[1,2-a][1,4]diazepin-8-yloxy)butanamido)-1-methyl-1H-pyrrole-2-carboxamido)phenyl)-1-methyl-1H-pyrrole-2-carboxamide] here?
A: Its IC50 is 1 nM.

Q: And the IC50 ([2]; PBD compounds (Table I))?
A: Its IC50 is 2.9 nM.

Q: And the IC50 ([3]; PBD compounds (Table I))?
A: Its IC50 is 1 nM.

Q: What about the IC50 ([4]; PBD compounds (Table I)) of the same molecule?
A: The IC50 was 4.9 nM.

Q: What about the IC50 ([5]; PBD compounds (Table I)) of the same molecule?
A: The IC50 was 0.9 nM.

Q: Which IC50 ([1]; PBD compounds (Table I)) does the source give for `C=C1CC2C=Nc3cc(OCCCC(=O)Nc4cn(C)c(C(=O)Nc5ccc(-c6nc7ccc(C(=O)OC)cc7[nH]6)cc5)n4)c(OC)cc3C(=O)N2C1` (stereo not shown) [Compound 33, (Z)-methyl 2-(4-(4-(4-(7-methoxy-2-methylene-5-oxo-2,3,5,11a-tetrahydro-1H-benzo[e]pyrrolo[1,2-a][1,4]diazepin-8-yloxy)butanamido)-1-methyl-1H-imidazole-2-carboxamido)phenyl)-1H-benzo[d]imidazole-6-carboxylate] here?
A: Its IC50 is 0.9 nM.

Q: And the IC50 ([2]; PBD compounds (Table I))?
A: The IC50 was 3.1 nM.

Q: What about the IC50 ([3]; PBD compounds (Table I)) of the same molecule?
A: Its IC50 is 0.3 nM.

Q: What about the IC50 ([4]; PBD compounds (Table I)) of the same molecule?
A: The IC50 was 3.4 nM.

Q: And the IC50 ([5]; PBD compounds (Table I))?
A: Its IC50 is 0.3 nM.

Q: With `COc1cc2c(cc1OCCCC(=O)Nc1cn(C)c(C(=O)Nc3ccc(-c4cc(C(=O)NCCCO)n(C)c4)cc3)n1)N=C[C@@H]1CCCN1C2=O` [Compound 40, (S,Z)—N-(4-(5-(3-hydroxypropylcarbamoyl)-1-methyl-1H-pyrrol-3-yl)phenyl)-4-(4-(7-methoxy-5-oxo-2,3,5,11a-tetrahydro-1H-benzo[e]pyrrolo[1,2-a][1,4]diazepin-8-yloxy)butanamido)-1-methyl-1H-imidazole-2-carboxamide] as the molecule, how does the IC50 ([1]; PBD compounds (Table I)) read?
A: Its IC50 is 1.7 nM.

Q: And the IC50 ([2]; PBD compounds (Table I))?
A: Its IC50 is 3 nM.

Q: What about the IC50 ([3]; PBD compounds (Table I)) of the same molecule?
A: The IC50 was 1.3 nM.

Q: And the IC50 ([4]; PBD compounds (Table I))?
A: Its IC50 is 5.5 nM.

Q: And the IC50 ([5]; PBD compounds (Table I))?
A: Its IC50 is 0.8 nM.

Q: What does the source list for `C=C1CC2C=Nc3cc(OCCCC(=O)Nc4cn(C)c(C(=O)Nc5ccc(-c6cc(C(=O)n7ccc8cc(OC)ccc87)n(C)c6)cc5)n4)c(OC)cc3C(=O)N2C1` (stereo not shown) [Compound 107, (Z)—N-(4-(5-(5-methoxy-1H-indole-1-carbonyl)-1-methyl-1H-pyrrol-3-yl)phenyl)-4-(4-(7-methoxy-2-methylene-5-oxo-2,3,5,11a-tetrahydro-1H-benzo[e]pyrrolo[1,2-a][1,4]diazepin-8-yloxy)butanamido)-1-methyl-1H-imidazole-2-carboxamide]?
A: IC50 ([1]; conjugates (Table II)): 0.03 nM; IC50 ([2]; conjugates (Table II)): 0.16 nM; IC50 ([3]; conjugates (Table II)): 0.03 nM; IC50 ([4]; conjugates (Table II)): 0.07 nM; IC50 ([5]; conjugates (Table II)): 0.02 nM

Q: Which results are given for `C=C1C[C@H]2C=Nc3cc(OCCCC(=O)Nc4cn(C)c(C(=O)Nc5ccc(-c6cc(C(=O)NC[C@H](C)O)n(C)c6)cc5)n4)c(OC)cc3C(=O)N2C1` [Compound 42, N-(4-(5-((S)-2-hydroxypropylcarbamoyl)-1-methyl-1H-pyrrol-3-yl)phenyl)-4-(4-((S,Z)-7-methoxy-2-methylene-5-oxo-2,3,5,11a-tetrahydro-1H-benzo[e]pyrrolo[1,2-a][1,4]diazepin-8-yloxy)butanamido)-1-methyl-1H-imidazole-2-carboxamide]?
A: IC50 ([1]; PBD compounds (Table I)): 1.4 nM; IC50 ([2]; PBD compounds (Table I)): 5.1 nM; IC50 ([3]; PBD compounds (Table I)): 1.2 nM; IC50 ([4]; PBD compounds (Table I)): 4.5 nM; IC50 ([5]; PBD compounds (Table I)): 1.4 nM

Q: How did the IC50 ([1]; PBD compounds (Table I)) turn out when `C=C1C[C@H]2C=Nc3cc(OCCCC(=O)Nc4cn(C)c(C(=O)Nc5ccc(-c6cc(C(=O)NCCCO)n(C)c6)cc5)n4)c(OC)cc3C(=O)N2C1` [Compound 39, (S)—N-(4-(5-((3-hydroxypropyl)carbamoyl)-1-methyl-1H-pyrrol-3-yl)phenyl)-4-(4-((7-methoxy-2-methylene-5-oxo-2,3,5,11a-tetrahydro-1H-benzo[e]pyrrolo[1,2-a][1,4]diazepin-8-yl)oxy)butanamido)-1-methyl-1H-imidazole-2-carboxamide] was run?
A: The IC50 was 0.4 nM.

Q: What about the IC50 ([2]; PBD compounds (Table I)) of the same molecule?
A: The IC50 was 2.4 nM.

Q: What about the IC50 ([3]; PBD compounds (Table I)) of the same molecule?
A: Its IC50 is 0.9 nM.

Q: And the IC50 ([5]; PBD compounds (Table I))?
A: The IC50 was 0.6 nM.

Q: What does the source list for `C=C1C[C@H]2C=Nc3cc(OCCCC(=O)Nc4cn(C)c(C(=O)Nc5ccc(-c6cc7cc(OC)ccc7[nH]6)cc5)n4)c(OC)cc3C(=O)N2C1` [Compound 108, (S,Z)—N-(4-(5-methoxy-1H-indol-2-yl)phenyl)-4-(4-(7-methoxy-2-methylene-5-oxo-2,3,5,11a-tetrahydro-1H-benzo[e]pyrrolo[1,2-a][1,4]diazepin-8-yloxy)butanamido)-1-methyl-1H-imidazole-2-carboxamide]?
A: IC50 ([1]; conjugates (Table II)): 0.04 nM; IC50 ([2]; conjugates (Table II)): 0.02 nM; IC50 ([4]; conjugates (Table II)): 0.43 nM; IC50 ([5]; conjugates (Table II)): 0.05 nM

From patent publication US10526294B2, “Pyrrolobenzodiazepines and conjugates thereof” (priority 2016, dated 2020)
